Test system: KRAS G12V dependent lung adenocarcinoma cell line, NCI-H441
Test: Cellular pERK (Thr202/Tyr204) FRET/HTRF assay
Type: cell-based
Conditions: Homo sapiens, NCI-H441, cellular pERK (Thr202/Tyr204) HTRF, NCI-H441 cells
Method in brief: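 Using a mix-and-read HTRF kit, phospho-ERK (Thr202/Tyr204) was detected in NCI-H441 lysates following 1 hr compound incubation at 37 °C, 5% CO2. Cells had been seeded overnight beforehand, and IC50 was derived by curve fitting.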

Row | SMILES | IC50
1 | Cc1c(F)c(N)cc(-c2ncc3c(N4CCCC[C@@H]5[C@@H](F)[C@@H]54)nc(OC[C@@]45CCCN4C/C(=C\F)C5)nc3c2F)c1C(F)(F)F [Example 399, 2-fluoro-5-(8-fluoro-4-((1R,7S,8R)-8-fluoro-2-azabicyclo[5.1.0]octan-2-yl)-2-(((S,Z)-2-(fluoromethylene)tetrahydro-1H-pyrrolizin-7a(5H)-yl)methoxy)pyrido[4,3-d]pyrimidin-7-yl)-3-methyl-4-(trifluoromethyl)aniline] | 500 to 10000 nM
2 | [2H]C([2H])(Oc1nc(N2CCOC[C@H]3[C@H](F)[C@H]32)c2c(O)nc(-c3cc(N)cc4ccc(F)c(C#C)c34)c(F)c2n1)[C@@]12CCCN1C[C@H](F)C2 [Example 401, 7-(3-amino-8-ethynyl-7-fluoronaphthalen-1-yl)-8-fluoro-4-((1S,7S,8S)-8-fluoro-5-oxa-2-azabicyclo[5.1.0]octan-2-yl)-2-(((2R,7aS)-2-fluorotetrahydro-1H-pyrrolizin-7a(5H)-yl)methoxy-d2)pyrido[4,3-d]pyrimidin-5-ol] | 500 to 10000 nM
3 | C#Cc1c(F)ccc2cccc(-c3ncc4c(N5CCCC[C@H]6[C@H](F)[C@H]65)nc(OC[C@]56C/C(=C/F)CN5CCC65CC5)nc4c3F)c12 [Example 402, (R,Z)-7a′-(((7-(8-Ethynyl-7-fluoronaphthalen-1-yl)-8-fluoro-4-((1S,7R,8S)-8-fluoro-2-azabicyclo[5.1.0]octan-2-yl)pyrido[4,3-d]pyrimidin-2-yl)oxy)methyl)-6′-(fluoromethylene)hexahydrospiro[cyclopropane-1,1′-pyrrolizine]] | < 50 nM
4 | C#Cc1c(F)ccc2cc(N)cc(-c3ncc4c(N5CCCC[C@H]6[C@H](F)[C@H]65)nc(OC[C@]56C/C(=C\F)CN5CCC65CC5)nc4c3F)c12 [Example 403, 5-Ethynyl-6-fluoro-4-(8-fluoro-4-((1S,7R,8S)-8-fluoro-2-azabicyclo[5.1.0]octan-2-yl)-2-(((R,E)-6′-(fluoromethylene)tetrahydrospiro[cyclopropane-1,1′-pyrrolizin]-7a′(5′H)-yl)methoxy)pyrido[4,3-d]pyrimidin-7-yl)naphthalen-2-amine] | < 50 nM
5 | C#Cc1c(F)ccc2cc(N)cc(-c3ncc4c(N5CCCC[C@H]6[C@H](F)[C@H]65)nc(OC[C@]56C/C(=C/F)CN5CCC65CC5)nc4c3F)c12 [Example 404, 5-Ethynyl-6-fluoro-4-(8-fluoro-4-((1S,7R,8S)-8-fluoro-2-azabicyclo[5.1.0]octan-2-yl)-2-(((R,Z)-6′-(fluoromethylene)tetrahydrospiro[cyclopropane-1,1′-pyrrolizin]-7a′(5′H)-yl)methoxy)pyrido[4,3-d]pyrimidin-7-yl)naphthalen-2-amine] | < 50 nM
6 | C#Cc1c(F)ccc2cccc(-c3ncc4c(N5CCCC[C@H]6[C@H](F)[C@H]65)nc(OC[C@]56CC(=C(F)F)CN5CCC65CC5)nc4c3F)c12 [Example 405, (R)-6′-(Difluoromethylene)-7a′-(((7-(8-ethynyl-7-fluoronaphthalen-1-yl)-8-fluoro-4-((1S,7R,8S)-8-fluoro-2-azabicyclo[5.1.0]octan-2-yl)pyrido[4,3-d]pyrimidin-2-yl)oxy)methyl)hexahydrospiro[cyclopropane-1,1′-pyrrolizine]] | < 50 nM
7 | Nc1cc(Cl)c(C(F)(F)F)c(-c2ncc3c(N4CCCC[C@H]5[C@H](F)[C@H]54)nc(OC[C@]45C/C(=C/F)CN4CCC54CC4)nc3c2F)c1 [Example 406, 3-chloro-5-(8-fluoro-4-((1S,7R,8S)-8-fluoro-2-azabicyclo[5.1.0]octan-2-yl)-2-(((R,Z)-6′-(fluoromethylene)tetrahydrospiro [cyclopropane-1,1′-pyrrolizin]-7a′(5′H)-yl)methoxy)pyrido[4,3-d]pyrimidin-7-yl)-4-(trifluoromethyl)aniline] | < 50 nM
8 | [2H]C([2H])(F)Oc1c(F)ccc2cccc(-c3ncc4c(N5CCCC[C@H]6[C@H](F)[C@H]65)nc(OC[C@]56CC(=C)CN5CCC65CC5)nc4c3F)c12 [Example 407, (R)-7a′-(((8-fluoro-7-(7-fluoro-8-(fluoromethoxy-d2)naphthalen-1-yl)-4-((1S,7R,8S)-8-fluoro-2-azabicyclo[5.1.0]octan-2-yl)pyrido[4,3-d]pyrimidin-2-yl)oxy)methyl)-6′-methylenehexahydrospiro[cyclopropane-1,1′-pyrrolizine]] | < 50 nM
9 | [2H]C([2H])(F)Oc1c(F)ccc2cccc(-c3ncc4c(N5CCCC[C@H]6[C@H](F)[C@H]65)nc(OC[C@]56C/C(=C/F)CN5CCC65CC5)nc4c3F)c12 [Example 408, (R,Z)-7a′-(((8-fluoro-7-(7-fluoro-8-(fluoromethoxy-d2)naphthalen-1-yl)-4-((1S,7R,8S)-8-fluoro-2-azabicyclo[5.1.0]octan-2-yl)pyrido[4,3-d]pyrimidin-2-yl)oxy)methyl)-6′-(fluoromethylene)hexahydrospiro [cyclopropane-1,1′-pyrrolizine]] | < 50 nM
10 | [2H]C([2H])(F)Oc1c(F)ccc2cc(N)cc(-c3ncc4c(N5CCCC[C@H]6[C@H](F)[C@H]65)nc(OC[C@]56C/C(=C/F)CN5CCC65CC5)nc4c3F)c12 [Example 409, 6-fluoro-4-(8-fluoro-4-((1S,7R,8S)-8-fluoro-2-azabicyclo[5.1.0]octan-2-yl)-2-(((R,Z)-6′-(fluoromethylene)tetrahydrospiro [cyclopropane-1,1′-pyrrolizin]-7a′(5′H)-yl)methoxy)pyrido[4,3-d]pyrimidin-7-yl)-5-(fluoromethoxy-d2)naphthalen-2-amine] | < 50 nM
11 | [2H]C([2H])(Oc1nc(N2CCOC[C@H]3[C@H](F)[C@H]32)c2cnc(-c3cc(N)cc4ccc(C)c(C#C)c34)c(F)c2n1)[C@@]12CCCN1[C@H](C)[C@H](F)C2 [Example 410, 5-ethynyl-4-(8-fluoro-2-(((2R,3R,7aS)-2-fluoro-3-methyltetrahydro-1H-pyrrolizin-7a(5H)-yl)methoxy-d2)-4-((1S,7S,8S)-8-fluoro-5-oxa-2-azabicyclo[5.1.0]octan-2-yl)pyrido[4,3-d]pyrimidin-7-yl)-6-methylnaphthalen-2-amine] | < 50 nM
12 | Nc1cc(Cl)c(C(F)(F)F)c(-c2ncc3c(N4CCCC[C@H]5[C@H](F)[C@H]54)nc(OC[C@]45CC(=C(F)F)CN4CCC54CC4)nc3c2F)c1 [Example 411, 3-chloro-5-(2-(((R)-6′-(difluoromethylene)tetrahydrospiro [cyclopropane-1,1′-pyrrolizin]-7a′(5′H)-yl)methoxy)-8-fluoro-4-((1S,7R,8S)-8-fluoro-2-azabicyclo[5.1.0]octan-2-yl)pyrido[4,3-d]pyrimidin-7-yl)-4-(trifluoromethyl)aniline] | 500 to 10000 nM
13 | Cc1c(F)c(N)cc(-c2ncc3c(N4CCCC[C@H]5[C@H](F)[C@H]54)nc(OC[C@]45CC(=C(F)F)CN4CCC54CC4)nc3c2F)c1C(F)(F)F [Example 412, 5-(2-(((R)-6′-(difluoromethylene)tetrahydrospiro [cyclopropane-1,1′-pyrrolizin]-7a′(5′H)-yl)methoxy)-8-fluoro-4-((1S,7R,8S)-8-fluoro-2-azabicyclo[5.1.0]octan-2-yl)pyrido[4,3-d]pyrimidin-7-yl)-2-fluoro-3-methyl-4-(trifluoromethyl)aniline] | 500 to 10000 nM

From patent publication US20250282799A1, “SUBSTITUTED PYRIDO[4,3-d]PYRIMIDINES AS KRAS MODULATORS” (Alterome Therapeutics, Inc., priority 2023, published 2025)
